Legend:
[1] = target: T1, Sodium-dependent dopamine transporter (Homo sapiens, UniProt Q01959); settings: Compound concentration 10.0 uM
[2] = target: 5-hydroxytryptamine receptor 6 (Homo sapiens) (UniProt P50406); settings: Compound concentration 10.0 uM
Rattus norvegicus = species: Rattus norvegicus; settings: Compound concentration 10.0 uM
[3] = target: T2, Kappa-type opioid receptor (Homo sapiens, UniProt P41145); settings: Compound concentration 10.0 uM
[4] = target: Muscarinic acetylcholine receptor M3 (Homo sapiens) (UniProt P20309); settings: Compound concentration 10.0 uM
[5] = target: D(1B) dopamine receptor (Homo sapiens) (UniProt P21918); settings: Compound concentration 10.0 uM
[6] = target: 5-hydroxytryptamine receptor 1D (Homo sapiens, UniProt P28221); settings: Compound concentration 10.0 uM
[7] = target: 5-hydroxytryptamine receptor 2A (Homo sapiens) (UniProt P28223); settings: Compound concentration 10.0 uM
[8] = target: 5-hydroxytryptamine receptor 2B (Homo sapiens, UniProt P41595); settings: Compound concentration 10.0 uM
[9] = target: Alpha-2A adrenergic receptor (Homo sapiens) (UniProt P08913); settings: Compound concentration 10.0 uM
[10] = target: 5-hydroxytryptamine receptor 1E (Homo sapiens) (UniProt P28566); settings: Compound concentration 10.0 uM
[11] = target: 5-hydroxytryptamine receptor 2C (Homo sapiens) (UniProt P28335); settings: Compound concentration 10.0 uM
[12] = target: Sigma intracellular receptor 2 (Homo sapiens, UniProt Q5BJF2); settings: Compound concentration 10.0 uM
[13] = target: Alpha-2B adrenergic receptor (Homo sapiens) (UniProt P18089); settings: Compound concentration 10.0 uM
[14] = target: 5-hydroxytryptamine receptor 5A (Homo sapiens) (UniProt P47898); settings: Compound concentration 10.0 uM
[15] = target: Muscarinic acetylcholine receptor M4 (Homo sapiens, UniProt P08173); assay: GPCRScan assay: inhibition of M4; set-up: radioligand conc. used [nm] 0.3 – 1.0, parental cells stable CHO
[16] = target: 5-hydroxytryptamine receptor 7 (Homo sapiens) (UniProt P34969); settings: Compound concentration 10.0 uM
[17] = GPCRScan assay: inhibition of GABA/PBR; set-up: species or system Rattus norvegicus; radioligand conc. used [nm] 0.3 – 2.0, parental cells brain tissue
[18] = target: Histamine H4 receptor (Homo sapiens) (UniProt Q9H3N8); settings: Compound concentration 10.0 uM
Spermine oxidase = Spermine oxidase (Homo sapiens, UniProt Q9NWM0); assay: HyPerBlu SMOX enzymatic assay
[19] = target: Mu-type opioid receptor (Homo sapiens) (UniProt P35372); settings: Compound concentration 10.0 uM
[20] = target: Beta-1 adrenergic receptor (Homo sapiens) (UniProt P08588); settings: Compound concentration 10.0 uM
[21] = target: Peroxisomal N(1)-acetyl-spermine/spermidine oxidase (Homo sapiens, UniProt Q6QHF9); assay: HyPerBlu POAX enzymatic assay
D(3) dopamine receptor [22] = target: T3, D(3) dopamine receptor (Homo sapiens, UniProt P35462); assay: GPCRScan assay: inhibition of D3; set-up: radioligand conc. used [nm] 0.5 – 1.8, parental cells HEKT
[23] = target: Histamine H2 receptor (Homo sapiens) (UniProt P25021); settings: Compound concentration 10.0 uM
[24] = target: Alpha-1A adrenergic receptor (Homo sapiens) (UniProt P35348); settings: Compound concentration 10.0 uM
[25] = target: Histamine H3 receptor (Homo sapiens) (UniProt Q9Y5N1); settings: Compound concentration 10.0 uM
D(4) dopamine receptor = D(4) dopamine receptor (Homo sapiens, UniProt P21917); assay: GPCRScan assay: inhibition of D4; set-up: radioligand conc. used [nm] 0.6 – 1.7, parental cells Stable HEK
[26] = target: D(2) dopamine receptor (Homo sapiens) (UniProt P14416); settings: Compound concentration 10.0 uM
[27] = target: Alpha-2C adrenergic receptor (Homo sapiens) (UniProt P18825); settings: Compound concentration 10.0 uM
[28] = target: GABA-A receptor; anion channel (Rattus norvegicus) (UniProt O09028+P15431+P18506+P18508+P19969+P20236+P23574+P23576+P28471+P28473+P30191+P62813+P63079+P63138+Q91ZM7+Q9ES14); settings: Compound concentration 10.0 uM
[29] = target: Muscarinic acetylcholine receptor M2 (Homo sapiens) (UniProt P08172); settings: Compound concentration 10.0 uM
[30] = target: Delta-type opioid receptor (Homo sapiens) (UniProt P41143); settings: Compound concentration 10.0 uM
[31] = target: 5-hydroxytryptamine receptor 1B (Homo sapiens, UniProt P28222); settings: Compound concentration 10.0 uM
[32] = target: Sodium-dependent serotonin transporter (Homo sapiens) (UniProt P31645); settings: Compound concentration 10.0 uM
[33] = target: 5-hydroxytryptamine receptor 3A (Homo sapiens) (UniProt P46098); settings: Compound concentration 10.0 uM
[34] = target: T2, Kappa-type opioid receptor; assay: GPCRScan assay: inhibition of KOR; set-up: radioligand conc. used [nm] 0.6 – 1.2, parental cells stable HEK
[35] = target: Beta-3 adrenergic receptor (Homo sapiens) (UniProt P13945); settings: Compound concentration 10.0 uM
[36] = target: Beta-2 adrenergic receptor (Homo sapiens) (UniProt P07550); settings: Compound concentration 10.0 uM
[37] = target: Alpha-1B adrenergic receptor (Homo sapiens, UniProt P35368); assay: GPCRScan assay: inhibition of Alpha1B; set-up: radioligand conc. used [nm] 0.3 – 1.0, parental cells stable HEK
[38] = target: Alpha-1D adrenergic receptor (Homo sapiens) (UniProt P25100); settings: Compound concentration 10.0 uM
[39] = target: Sigma non-opioid intracellular receptor 1 (Homo sapiens) (UniProt Q99720); settings: Compound concentration 10.0 uM
[40] = target: T4, Muscarinic acetylcholine receptor M4 (Homo sapiens) (UniProt P08173); settings: Compound concentration 10.0 uM
T4 sequence (whole entry): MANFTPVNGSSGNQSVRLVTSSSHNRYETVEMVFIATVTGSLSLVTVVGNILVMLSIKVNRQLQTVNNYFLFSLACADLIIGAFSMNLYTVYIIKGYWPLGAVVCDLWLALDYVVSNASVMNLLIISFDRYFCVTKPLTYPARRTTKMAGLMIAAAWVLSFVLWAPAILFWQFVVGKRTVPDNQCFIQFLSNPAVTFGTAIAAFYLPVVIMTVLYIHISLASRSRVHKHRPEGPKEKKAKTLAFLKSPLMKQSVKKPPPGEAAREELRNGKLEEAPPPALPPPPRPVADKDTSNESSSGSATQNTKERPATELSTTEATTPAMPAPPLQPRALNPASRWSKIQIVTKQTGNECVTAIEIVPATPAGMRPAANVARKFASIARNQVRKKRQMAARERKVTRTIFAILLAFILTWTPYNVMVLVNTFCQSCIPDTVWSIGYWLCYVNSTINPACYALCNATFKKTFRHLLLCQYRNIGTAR

D(3) dopamine receptor [41] = target: T3, D(3) dopamine receptor; settings: Compound concentration 10.0 uM
[42] = target: Alpha-1B adrenergic receptor (Homo sapiens) (UniProt P35368); settings: Compound concentration 10.0 uM
[43] = target: Histamine H1 receptor (Homo sapiens) (UniProt P35367); settings: Compound concentration 10.0 uM
[44] = target: Muscarinic acetylcholine receptor M1 (Homo sapiens) (UniProt P11229); settings: Compound concentration 10.0 uM
[45] = target: 5-hydroxytryptamine receptor 1A (Homo sapiens) (UniProt P08908); settings: Compound concentration 10.0 uM
[46] = target: Sodium-dependent noradrenaline transporter (Homo sapiens) (UniProt P23975); settings: Compound concentration 10.0 uM
[47] = target: D(4) dopamine receptor (Homo sapiens) (UniProt P21917); settings: Compound concentration 10.0 uM
[48] = target: D(1A) dopamine receptor (Homo sapiens) (UniProt P21728); settings: Compound concentration 10.0 uM
[49] = target: T1, Sodium-dependent dopamine transporter; assay: GPCRScan assay: inhibition of DAT; set-up: radioligand conc. used [nm] 3.6 – 16.0, parental cells stable HEK
[50] = target: Muscarinic acetylcholine receptor M5 (Homo sapiens) (UniProt P08912); settings: Compound concentration 10.0 uM
Muscarinic acetylcholine receptor M5 (Homo sapiens), sequence (P08912 whole entry): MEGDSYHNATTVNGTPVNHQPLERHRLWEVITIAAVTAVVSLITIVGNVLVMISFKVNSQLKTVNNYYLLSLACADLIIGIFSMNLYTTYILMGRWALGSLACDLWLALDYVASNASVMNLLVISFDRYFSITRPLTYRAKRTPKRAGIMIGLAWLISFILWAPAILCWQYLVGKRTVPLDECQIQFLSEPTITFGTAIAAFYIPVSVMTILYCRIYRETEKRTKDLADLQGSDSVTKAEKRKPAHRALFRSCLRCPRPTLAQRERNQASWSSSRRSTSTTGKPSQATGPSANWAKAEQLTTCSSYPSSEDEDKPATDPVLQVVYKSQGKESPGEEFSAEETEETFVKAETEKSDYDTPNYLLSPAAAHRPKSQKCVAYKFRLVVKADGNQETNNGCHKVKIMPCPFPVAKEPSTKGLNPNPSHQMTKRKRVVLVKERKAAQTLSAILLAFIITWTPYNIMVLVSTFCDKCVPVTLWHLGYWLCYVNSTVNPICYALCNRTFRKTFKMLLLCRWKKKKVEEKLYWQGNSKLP

T1 sequence (Q01959 whole entry): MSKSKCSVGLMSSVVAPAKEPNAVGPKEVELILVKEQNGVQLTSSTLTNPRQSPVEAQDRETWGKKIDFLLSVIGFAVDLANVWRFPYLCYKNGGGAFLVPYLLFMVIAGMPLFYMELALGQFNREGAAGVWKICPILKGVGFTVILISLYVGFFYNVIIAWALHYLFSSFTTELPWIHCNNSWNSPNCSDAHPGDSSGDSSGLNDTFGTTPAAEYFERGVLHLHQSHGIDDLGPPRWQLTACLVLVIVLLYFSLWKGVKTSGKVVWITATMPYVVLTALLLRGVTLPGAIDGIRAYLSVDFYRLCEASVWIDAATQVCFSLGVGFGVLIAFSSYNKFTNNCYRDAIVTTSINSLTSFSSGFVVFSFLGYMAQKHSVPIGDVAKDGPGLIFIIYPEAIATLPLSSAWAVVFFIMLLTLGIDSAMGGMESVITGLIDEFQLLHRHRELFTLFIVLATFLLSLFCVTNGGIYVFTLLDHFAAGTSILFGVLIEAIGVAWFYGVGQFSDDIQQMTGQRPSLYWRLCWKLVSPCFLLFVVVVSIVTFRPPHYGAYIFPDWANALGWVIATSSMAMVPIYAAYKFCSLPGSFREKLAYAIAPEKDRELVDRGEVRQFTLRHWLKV
T3 sequence (P35462 whole entry): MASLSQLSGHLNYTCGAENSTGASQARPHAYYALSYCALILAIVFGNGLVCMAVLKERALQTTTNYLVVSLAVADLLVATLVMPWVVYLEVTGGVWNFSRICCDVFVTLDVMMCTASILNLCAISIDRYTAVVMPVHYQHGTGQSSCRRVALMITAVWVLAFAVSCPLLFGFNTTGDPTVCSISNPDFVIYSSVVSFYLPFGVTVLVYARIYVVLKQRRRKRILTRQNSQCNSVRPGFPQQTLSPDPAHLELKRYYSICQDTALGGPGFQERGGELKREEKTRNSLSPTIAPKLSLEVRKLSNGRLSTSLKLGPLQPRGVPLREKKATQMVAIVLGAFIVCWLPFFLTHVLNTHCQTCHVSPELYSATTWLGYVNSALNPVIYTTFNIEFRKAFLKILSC
T2 sequence (P41145 whole entry): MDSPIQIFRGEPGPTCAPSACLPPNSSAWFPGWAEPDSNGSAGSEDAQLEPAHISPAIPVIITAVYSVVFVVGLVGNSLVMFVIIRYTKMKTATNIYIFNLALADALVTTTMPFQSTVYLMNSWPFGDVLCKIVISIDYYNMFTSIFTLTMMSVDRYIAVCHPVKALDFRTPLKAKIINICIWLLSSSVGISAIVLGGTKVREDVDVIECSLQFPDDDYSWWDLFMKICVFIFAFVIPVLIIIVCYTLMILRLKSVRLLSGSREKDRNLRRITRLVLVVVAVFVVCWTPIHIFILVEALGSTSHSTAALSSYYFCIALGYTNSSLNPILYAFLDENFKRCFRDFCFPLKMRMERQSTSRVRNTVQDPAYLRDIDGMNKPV
Histamine H1 receptor (Homo sapiens), sequence (P35367 whole entry): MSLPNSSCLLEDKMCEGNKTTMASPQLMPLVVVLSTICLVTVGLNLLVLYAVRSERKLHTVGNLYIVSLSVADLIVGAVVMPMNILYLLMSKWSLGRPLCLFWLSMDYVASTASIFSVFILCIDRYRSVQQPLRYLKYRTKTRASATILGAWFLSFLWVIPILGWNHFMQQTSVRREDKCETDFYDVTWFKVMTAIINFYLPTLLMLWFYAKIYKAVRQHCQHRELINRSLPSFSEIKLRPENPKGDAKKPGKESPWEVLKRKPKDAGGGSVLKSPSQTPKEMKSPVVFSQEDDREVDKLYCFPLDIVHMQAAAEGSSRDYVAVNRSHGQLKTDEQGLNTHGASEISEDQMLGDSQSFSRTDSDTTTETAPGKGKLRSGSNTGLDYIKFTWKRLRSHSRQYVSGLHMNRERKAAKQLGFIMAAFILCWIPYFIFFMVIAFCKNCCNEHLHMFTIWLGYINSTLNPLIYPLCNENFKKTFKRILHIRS
Mu-type opioid receptor (Homo sapiens), sequence (P35372 whole entry): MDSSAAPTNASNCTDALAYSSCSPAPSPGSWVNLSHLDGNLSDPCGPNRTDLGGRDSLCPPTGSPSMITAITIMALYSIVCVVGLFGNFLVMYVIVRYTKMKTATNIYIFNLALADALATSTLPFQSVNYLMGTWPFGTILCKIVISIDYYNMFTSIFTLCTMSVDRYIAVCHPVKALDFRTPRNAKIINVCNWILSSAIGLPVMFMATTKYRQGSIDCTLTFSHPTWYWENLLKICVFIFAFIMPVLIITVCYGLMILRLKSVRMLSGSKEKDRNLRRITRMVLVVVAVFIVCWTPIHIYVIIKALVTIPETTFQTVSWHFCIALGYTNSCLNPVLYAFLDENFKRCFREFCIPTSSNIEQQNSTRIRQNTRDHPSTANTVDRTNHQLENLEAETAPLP
Sodium-dependent noradrenaline transporter (Homo sapiens), sequence (P23975 whole entry): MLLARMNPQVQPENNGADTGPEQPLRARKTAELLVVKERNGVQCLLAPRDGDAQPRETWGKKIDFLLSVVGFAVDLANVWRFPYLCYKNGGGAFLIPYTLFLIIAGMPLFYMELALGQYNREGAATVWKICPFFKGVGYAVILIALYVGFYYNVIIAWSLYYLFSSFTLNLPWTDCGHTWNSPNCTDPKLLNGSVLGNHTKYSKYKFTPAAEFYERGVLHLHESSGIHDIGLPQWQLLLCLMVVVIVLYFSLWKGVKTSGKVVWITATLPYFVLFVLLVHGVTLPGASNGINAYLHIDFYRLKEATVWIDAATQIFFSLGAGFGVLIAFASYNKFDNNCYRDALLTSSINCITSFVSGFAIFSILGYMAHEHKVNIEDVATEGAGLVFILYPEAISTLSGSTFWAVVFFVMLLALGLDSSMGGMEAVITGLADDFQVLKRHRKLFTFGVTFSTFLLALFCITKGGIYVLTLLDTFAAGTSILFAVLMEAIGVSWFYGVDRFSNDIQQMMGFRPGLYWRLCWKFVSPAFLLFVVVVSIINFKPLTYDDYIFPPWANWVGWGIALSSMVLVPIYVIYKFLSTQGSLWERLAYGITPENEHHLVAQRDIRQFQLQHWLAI
Sigma non-opioid intracellular receptor 1 (Homo sapiens), sequence (Q99720 whole entry): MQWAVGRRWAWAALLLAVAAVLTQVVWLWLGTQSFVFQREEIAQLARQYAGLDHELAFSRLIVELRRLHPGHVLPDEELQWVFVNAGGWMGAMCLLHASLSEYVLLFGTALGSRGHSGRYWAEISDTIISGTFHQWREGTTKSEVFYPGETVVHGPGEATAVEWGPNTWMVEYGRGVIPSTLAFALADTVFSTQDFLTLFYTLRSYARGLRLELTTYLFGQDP
5-hydroxytryptamine receptor 1E (Homo sapiens), sequence (P28566 whole entry): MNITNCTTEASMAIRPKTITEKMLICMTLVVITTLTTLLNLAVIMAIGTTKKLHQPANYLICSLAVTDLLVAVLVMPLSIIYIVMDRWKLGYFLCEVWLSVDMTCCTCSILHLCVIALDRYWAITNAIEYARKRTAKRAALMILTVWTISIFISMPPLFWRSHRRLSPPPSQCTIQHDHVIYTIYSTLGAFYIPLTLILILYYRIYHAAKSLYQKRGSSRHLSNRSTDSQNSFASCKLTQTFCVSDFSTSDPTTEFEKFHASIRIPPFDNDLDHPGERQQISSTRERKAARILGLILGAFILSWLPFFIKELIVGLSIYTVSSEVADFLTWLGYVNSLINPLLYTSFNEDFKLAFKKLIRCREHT
5-hydroxytryptamine receptor 5A (Homo sapiens), sequence (P47898 whole entry): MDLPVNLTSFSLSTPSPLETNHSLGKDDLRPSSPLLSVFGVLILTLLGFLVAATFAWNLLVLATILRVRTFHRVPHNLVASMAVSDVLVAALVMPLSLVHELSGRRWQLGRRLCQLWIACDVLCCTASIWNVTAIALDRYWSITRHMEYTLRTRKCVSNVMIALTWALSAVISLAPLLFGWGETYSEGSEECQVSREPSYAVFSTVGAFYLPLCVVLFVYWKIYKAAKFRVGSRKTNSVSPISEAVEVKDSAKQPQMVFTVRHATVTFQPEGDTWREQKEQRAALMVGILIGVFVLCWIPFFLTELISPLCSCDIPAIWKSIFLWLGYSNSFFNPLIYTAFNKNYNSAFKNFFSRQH
Muscarinic acetylcholine receptor M1 (Homo sapiens), sequence (P11229 whole entry): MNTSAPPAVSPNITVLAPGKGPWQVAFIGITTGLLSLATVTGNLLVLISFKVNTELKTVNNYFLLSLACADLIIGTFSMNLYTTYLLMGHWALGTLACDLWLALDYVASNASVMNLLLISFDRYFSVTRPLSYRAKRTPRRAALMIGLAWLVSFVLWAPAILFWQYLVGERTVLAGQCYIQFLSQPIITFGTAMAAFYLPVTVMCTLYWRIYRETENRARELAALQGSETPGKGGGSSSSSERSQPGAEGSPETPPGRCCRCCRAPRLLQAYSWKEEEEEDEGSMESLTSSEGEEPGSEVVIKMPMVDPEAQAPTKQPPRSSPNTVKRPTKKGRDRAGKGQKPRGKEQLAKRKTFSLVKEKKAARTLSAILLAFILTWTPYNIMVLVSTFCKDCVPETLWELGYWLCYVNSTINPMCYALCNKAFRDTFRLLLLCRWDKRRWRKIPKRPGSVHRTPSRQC

CC(=O)Nc1ccc(-c2cc(-c3ccccc3)nc3cc(C(=O)NCCCn4ccnc4)nn23)cc1 showed an inhibition [1] of 79.9%, an inhibition [2] of -8.97% and an inhibition (Rattus norvegicus) of 96.6%. It also gave an inhibition [3] of 90.7%, an inhibition [4] of 33.5% and an inhibition [5] of 15%. For the same compound, the inhibition [6] was 48.5%, the inhibition [7] was 17.8% and the inhibition [8] was 17.5%. It also gave an inhibition [9] of 28.1%, an inhibition [10] of 15.1% and an inhibition [11] of 7.86%. The inhibition [12] was 25.4%, the inhibition [13] was 10.8% and the inhibition [14] was 6.76%. It also gave a Ki [15] of 1.31 µM, an inhibition [16] of 0.12% and a Ki [17] of 0.306 µM. The pKi [17] was 6.51, the inhibition [18] was 27.9% and the IC50 (Spermine oxidase) was > 31 µM (not active). The inhibition [19] was 25.4%, the inhibition [20] was 4.27% and the IC50 [21] was 2.1 µM (not active). The Ki (D(3) dopamine receptor [22]) was 3.6 µM, the inhibition [23] was 10.8% and the inhibition [24] was -7.41%. It also gave an inhibition [25] of 6.04%, a Ki (D(4) dopamine receptor) of 3.39 µM and an inhibition [26] of 32.2%. The inhibition [27] was -1.48%, the inhibition [28] was 25.9% and the inhibition [29] was 46.1%. It also gave an inhibition [30] of 49.3%, an inhibition [31] of 38.4% and an inhibition [32] of 12.9%. For the same compound, the inhibition [33] was 16.2%, the Ki [34] was 0.198 µM and the inhibition [35] was -5.81%. It also gave an inhibition [36] of -7.96%, a Ki [37] of 9.78 µM and an inhibition [38] of 39.3%. The inhibition [39] was 21.2%, the inhibition [40] was 51.6% and the inhibition (D(3) dopamine receptor [41]) was 90%. For the same compound, the inhibition [42] was 75.3%, the inhibition [43] was 14.9% and the inhibition [44] was 18.5%. It also gave an inhibition [45] of 16.5%, an inhibition [46] of 49.4% and an inhibition [47] of 89.3%. For the same compound, the inhibition [48] was 22.7%, the Ki ([49]; read-out: Ki) was 6.55 µM and the Ki ([49]; read-out: pKi (converted)) was 6.61 µM. For the same compound, the inhibition [50] was 30.3%.
